Reference: ChEMBL document CHEMBL4196125, “Identification of N-Benzyl 3,5-Dinitrobenzamides Derived from PBTZ169 as Antitubercular Agents” (ACS Med Chem Lett, 2018)
In brackets after ≈: the same amount, converted by molar mass.

Experiments:
Format in all cases: functional
[1] = test system: Mycobacterium tuberculosis; experiment: Antitubercular activity against isoniazid/rifampicin-resistant Mycobacterium tuberculosis 12525 clinical isolate measured after 7 days by microplate alamar blue assay; details: Mycobacterium tuberculosis, 12525, 168 h
[2] = test system: Mycobacterium tuberculosis; experiment: Antitubercular activity against isoniazid/rifampicin-resistant Mycobacterium tuberculosis 14231 clinical isolate measured after 7 days by microplate alamar blue assay; details: Mycobacterium tuberculosis, 14231, 168 h
[3] = test system: Mycobacterium tuberculosis; experiment: Antitubercular activity against Mycobacterium tuberculosis H37Rv harboring GFP measured after 7 days by fluorescence assay; details: 168 h

| Compound | MIC90 [1] | MIC90 [2] | MIC [3] |
| --- | --- | --- | --- |
| CO[C@H]1/C=C/O[C@@]2(C)Oc3c(C)c(O)c4c(O)c(c(/C=N/N5CCN(C)CC5)c(O)c4c3C2=O)NC(=O)/C(C)=C\C=C\[C@H](C)[C@H](O)[C@@H](C)[C@@H](O)[C@@H](C)[C@H](OC(C)=O)[C@@H]1C [RIFAMPIN] | > 40 µg/mL | > 40 µg/mL | – |
| O=C(NCc1ccc(N2CCN(c3ccc(F)cc3)CC2)cc1)c1cc([N+](=O)[O-])cc([N+](=O)[O-])c1 | 0.047 µg/mL (≈ 0.098 µM) | 0.077 µg/mL (≈ 0.161 µM) | – |
| O=c1nc(N2CCN(CC3CCCCC3)CC2)sc2c([N+](=O)[O-])cc(C(F)(F)F)cc12 [MACOZINONE] | 0.116 µg/mL (≈ 0.254 µM) | 0.232 µg/mL (≈ 0.508 µM) | – |
| O=C(NCc1ccc(N2CCC(C(F)(F)F)CC2)cc1)c1cc([N+](=O)[O-])cc([N+](=O)[O-])c1 | < 0.016 µg/mL | 0.075 µg/mL (≈ 0.166 µM) | – |
| O=C(NCc1ccc(N2CCSCC2)cc1)c1cc([N+](=O)[O-])cc([N+](=O)[O-])c1 | 0.017 µg/mL (≈ 0.0422 µM) | 0.085 µg/mL (≈ 0.211 µM) | – |
| O=C(NCc1ccc(N2CCC(c3ccc(OC(F)(F)F)cc3)CC2)cc1)c1cc([N+](=O)[O-])cc([N+](=O)[O-])c1 | 0.21 µg/mL (≈ 0.386 µM) | 0.474 µg/mL (≈ 0.871 µM) | – |
| O=C(NCc1ccc(N2CCC(C(F)(F)F)CC2)cc1)c1cc([N+](=O)[O-])cc(C(F)(F)F)c1 | 0.138 µg/mL (≈ 0.29 µM) | > 40 µg/mL | – |
| COc1ccc(OCCNC(=O)c2cc([N+](=O)[O-])cc([N+](=O)[O-])c2)cc1 | – | – | 0.075 µg/mL (≈ 0.208 µM) |
| O=C(NCc1ccc(N2CC3CCCCC3C2)cc1)c1cc([N+](=O)[O-])cc([N+](=O)[O-])c1 (centres undefined) | 0.031 µg/mL (≈ 0.073 µM) | 0.125 µg/mL (≈ 0.294 µM) | – |
| NNC(=O)c1ccncc1 [ISONIAZID] | > 40 µg/mL | > 40 µg/mL | – |
